# Results published in ChEMBL document CHEMBL1201862, “PubChem BioAssay data set” (2004).
#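 The compound was tested at five concentrations on cells cultured in 96-well plates, with a 48-hour exposure period. Abbreviation: GI50, concentration required for 50% inhibition of growth.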 Calls of active or inactive are those of the source. Rule as the data show it: active = GI50 up to about 1.1 µM and inactive = higher.
# Columns and labels:
# Assay in all cases: DTP human tumour cell line panel, 48 h
# SR = system: SR
# SN12C = system: SN12C
# SF-268 = system: SF-268
# MDA-MB-435 = system: MDA-MB-435
# SK-OV-3 = system: SK-OV-3
# OVCAR-8 = system: OVCAR-8
# EKVX = system: EKVX
# NCI-H522 = system: NCI-H522
# NCI/ADR-RES = system: NCI/ADR-RES
# KM12 = system: KM12
# NCI-H23 = system: NCI-H23
# OVCAR-3 = system: OVCAR-3
# ACHN = system: ACHN
# SK-MEL-5 = system: SK-MEL-5
# RXF 393 = system: RXF 393
# MDA-MB-231 = system: MDA-MB-231
# A549 = system: A549
# 786-0 = system: 786-0
# TK-10 = system: TK-10
# OVCAR-5 = system: OVCAR-5
# COLO 205 = system: COLO 205
# MCF7 = system: MCF7
# SNB-19 = system: SNB-19
# MDA-N = system: MDA-N
# UACC-257 = system: UACC-257
# HCC 2998 = system: HCC 2998
# HOP-92 = system: HOP-92
# T47D = system: T47D
# SK-MEL-28 = system: SK-MEL-28
# SK-MEL-2 = system: SK-MEL-2
# CAKI-1 = system: CAKI-1
# SW-620 = system: SW-620
# SNB-75 = system: SNB-75
# Hs-578T = system: Hs-578T
# RPMI-8226 = system: RPMI-8226
# CCRF-CEM = system: CCRF-CEM
# PC-3 = system: PC-3
# Malme-3M = system: Malme-3M
# SF-295 = system: SF-295
# A498 = system: A498
# IGROV-1 = system: IGROV-1
# HCT-15 = system: HCT-15
# SF-539 = system: SF-539
# MOLT-4 = system: MOLT-4
# UO-31 = system: UO-31
# LOX IMVI = system: LOX IMVI
# U-251 = system: U-251
# UACC-62 = system: UACC-62
# K562 = system: K562
# HT-29 = system: HT-29
# NCI-H460 = system: NCI-H460
# BT-549 = system: BT-549
# DU-145 = system: DU-145
# NCI-H226 = system: NCI-H226
# HL-60 = system: HL-60
# HCT-116 = system: HCT-116
# M14 = system: M14
# HOP-62 = system: HOP-62
# OVCAR-4 = system: OVCAR-4
structure (smiles),measurement,setting,value
O=S(=O)(/C=C/C=C/[S+]([O-])c1ccccc1)c1ccccc1 (stereo not given),GI50,SR,0.877 µM (active)
same,GI50,SN12C,2 µM (inactive)
same,GI50,SF-268,3.13 µM (inactive)
same,GI50,MDA-MB-435,2.07 µM (inactive)
same,GI50,SK-OV-3,> 10 µM (inactive)
same,GI50,OVCAR-8,1.7 µM (inactive)
same,GI50,EKVX,> 10 µM (inactive)
same,GI50,NCI-H522,1.59 µM (inactive)
same,GI50,NCI/ADR-RES,2.12 µM (inactive)
same,GI50,KM12,> 2.63 µM (inactive)
same,GI50,NCI-H23,1.96 µM (inactive)
same,GI50,OVCAR-3,1.53 µM (inactive)
same,GI50,ACHN,2.34 µM (inactive)
same,GI50,SK-MEL-5,1.03 µM (active)
same,GI50,RXF 393,1.58 µM (inactive)
same,GI50,MDA-MB-231,2.81 µM (inactive)
same,GI50,A549,> 10 µM (inactive)
same,GI50,786-0,0.625 µM (active)
same,GI50,TK-10,2.09 µM (inactive)
same,GI50,OVCAR-5,> 8.22 µM (inactive)
same,GI50,COLO 205,1.76 µM (inactive)
same,GI50,MCF7,0.887 µM (active)
same,GI50,SNB-19,> 10 µM (inactive)
same,GI50,MDA-N,2.95 µM (inactive)
same,GI50,UACC-257,1.67 µM (inactive)
same,GI50,HCC 2998,> 10 µM (inactive)
same,GI50,HOP-92,1.96 µM (inactive)
same,GI50,T47D,2.02 µM (inactive)
same,GI50,SK-MEL-28,1.98 µM (inactive)
same,GI50,SK-MEL-2,2.01 µM (inactive)
same,GI50,CAKI-1,1.84 µM (inactive)
same,GI50,SW-620,1.3 µM (inactive)
same,GI50,SNB-75,4.66 µM (inactive)
same,GI50,Hs-578T,3.51 µM (inactive)
same,GI50,RPMI-8226,0.875 µM (active)
same,GI50,CCRF-CEM,0.333 µM (active)
same,GI50,PC-3,> 6.92 µM (inactive)
same,GI50,Malme-3M,1.98 µM (inactive)
same,GI50,SF-295,> 10 µM (inactive)
same,GI50,A498,6.97 µM (inactive)
same,GI50,IGROV-1,> 5.41 µM (inactive)
same,GI50,HCT-15,2.05 µM
same,GI50,SF-539,8.09 µM (inactive)
same,GI50,MOLT-4,1.42 µM (inactive)
same,GI50,UO-31,2.27 µM (inactive)
same,GI50,LOX IMVI,1.03 µM (active)
same,GI50,U-251,> 10 µM (inactive)
same,GI50,UACC-62,1.44 µM (inactive)
same,GI50,K562,0.902 µM (active)
same,GI50,HT-29,2.21 µM (inactive)
same,GI50,NCI-H460,> 10 µM (inactive)
same,GI50,BT-549,> 10 µM (inactive)
same,GI50,DU-145,> 4.42 µM (inactive)
same,GI50,NCI-H226,> 10 µM (inactive)
same,GI50,HL-60,0.327 µM (active)
same,GI50,HCT-116,1.38 µM (inactive)
same,GI50,M14,0.685 µM (active)
same,GI50,HOP-62,> 10 µM (inactive)
same,GI50,OVCAR-4,1.59 µM (inactive)
N#CC1=C(S)N(C2OC(CO)C(O)C(O)C2O)C(c2ccccc2)=CC1c1ccco1 (stereo not given),GI50,SR,36.9 µM (inactive)
same,GI50,SN12C,40.5 µM (inactive)
same,GI50,SF-268,> 100 µM (inactive)
same,GI50,MDA-MB-435,> 100 µM (inactive)
same,GI50,OVCAR-8,40.4 µM (inactive)
same,GI50,NCI-H522,35.7 µM (inactive)
same,GI50,NCI/ADR-RES,> 100 µM (inactive)
same,GI50,KM12,41.9 µM (inactive)
same,GI50,NCI-H23,59 µM (inactive)
same,GI50,OVCAR-3,> 100 µM (inactive)
same,GI50,ACHN,> 10 µM (inactive)
same,GI50,SK-MEL-5,26.9 µM (inactive)
same,GI50,RXF 393,44 µM (inactive)
same,GI50,MDA-MB-231,54.5 µM (inactive)
same,GI50,A549,46.1 µM (inactive)
same,GI50,786-0,38 µM (inactive)
same,GI50,TK-10,44.1 µM (inactive)
same,GI50,OVCAR-5,> 100 µM (inactive)
same,GI50,COLO 205,> 10 µM (inactive)
same,GI50,MCF7,62.2 µM (inactive)
same,GI50,SNB-19,69.5 µM (inactive)
same,GI50,MDA-N,93.3 µM (inactive)
same,GI50,UACC-257,97.1 µM (inactive)
same,GI50,HCC 2998,28.4 µM (inactive)
same,GI50,HOP-92,32.6 µM (inactive)
same,GI50,T47D,4.36 µM (inactive)
same,GI50,SK-MEL-28,91.6 µM (inactive)
same,GI50,SK-MEL-2,59 µM (inactive)
same,GI50,CAKI-1,38.8 µM (inactive)
same,GI50,SNB-75,16.6 µM (inactive)
same,GI50,Hs-578T,56.5 µM (inactive)
same,GI50,RPMI-8226,23.2 µM (inactive)
same,GI50,CCRF-CEM,88.9 µM (inactive)
same,GI50,PC-3,47.4 µM (inactive)
same,GI50,Malme-3M,81.7 µM (inactive)
same,GI50,SF-295,24.6 µM (inactive)
same,GI50,A498,71.6 µM (inactive)
same,GI50,IGROV-1,> 100 µM (inactive)
same,GI50,HCT-15,68.9 µM
same,GI50,SF-539,35.2 µM (inactive)
same,GI50,MOLT-4,35.2 µM (inactive)
same,GI50,UO-31,82.2 µM (inactive)
same,GI50,LOX IMVI,23.2 µM (inactive)
same,GI50,U-251,19.8 µM (inactive)
same,GI50,UACC-62,16.3 µM (inactive)
same,GI50,K562,42.7 µM (inactive)
same,GI50,HT-29,> 100 µM (inactive)
same,GI50,NCI-H460,28.2 µM (inactive)
same,GI50,BT-549,> 100 µM (inactive)
same,GI50,DU-145,> 100 µM (inactive)
same,GI50,NCI-H226,> 100 µM (inactive)
same,GI50,HL-60,> 100 µM (inactive)
same,GI50,HCT-116,21.3 µM (inactive)
same,GI50,M14,50.5 µM (inactive)
same,GI50,HOP-62,44.6 µM (inactive)
same,GI50,OVCAR-4,> 100 µM (inactive)
